Source: article PMC4467398, “Preclinical antitumor activity of ST7612AA1: a new oral thiol-based histone deacetylase (HDAC) inhibitor” (Oncotarget, 2014)

Tested on: DOHH2 and TMD8 DLBCL cells
Assay: Gene expression profiling (HumanHT-12 v4 BeadChip, limma), ST7612AA1 300 nM 8 hrs vs DMSO
Type: cell-based, human
Conditions: 300 nM 8 hrs

CC(=O)SCCCCC[C@H](NC(=O)[C@H]1CCC(=O)N1)C(=O)Nc1ccccc1 [ST7612AA1]
AveExpr.ST7612 NOSIP (probe ILMN_1759436): 7.06E-01
AveExpr.ST7612 NPC2 (probe ILMN_1716678): 8.44E-01
AveExpr.ST7612 NPL (probe ILMN_1782070): 7.76E-01
AveExpr.ST7612 NPL (probe ILMN_2149494): 8.88E-01
AveExpr.ST7612 NQO2 (probe ILMN_1712918): 8.69E-01
AveExpr.ST7612 NUB1 (probe ILMN_1665291): 7.20E-01
AveExpr.ST7612 NUMB (probe ILMN_2331266): 7.27E-01
AveExpr.ST7612 NXF1 (probe ILMN_1705783): 8.80E-01
AveExpr.ST7612 NXF1 (probe ILMN_2358652): 7.18E-01
AveExpr.ST7612 P704P (probe ILMN_1793950): 6.85E-01
AveExpr.ST7612 PAQR8 (probe ILMN_1694589): 7.20E-01
AveExpr.ST7612 PCYOX1 (probe ILMN_1679725): 7.89E-01
AveExpr.ST7612 PDXK (probe ILMN_1672504): 8.94E-01
AveExpr.ST7612 PECI (probe ILMN_2384536): 8.25E-01
AveExpr.ST7612 PEX16 (probe ILMN_1745655): 7.84E-01
AveExpr.ST7612 PIM2 (probe ILMN_1748283): 7.43E-01
AveExpr.ST7612 PKIA (probe ILMN_2337974): 7.37E-01
AveExpr.ST7612 PLD3 (probe ILMN_1666976): 8.81E-01
AveExpr.ST7612 PMAIP1 (probe ILMN_2098446): 8.50E-01
AveExpr.ST7612 PNKD (probe ILMN_1774604): 7.25E-01
AveExpr.ST7612 PRDX2 (probe ILMN_1767766): 8.35E-01
AveExpr.ST7612 PRDX2 (probe ILMN_2382829): 7.41E-01
AveExpr.ST7612 PTGER4 (probe ILMN_1795930): 9.03E-01
AveExpr.ST7612 PTTG1 (probe ILMN_1753196): 6.92E-01
AveExpr.ST7612 RAB8B (probe ILMN_2173004): 8.71E-01
AveExpr.ST7612 RAB24 (probe ILMN_2379718): 7.77E-01
AveExpr.ST7612 RABGAP1 (probe ILMN_2061950): 6.86E-01
AveExpr.ST7612 RAPGEF2 (probe ILMN_3247261): 8.54E-01
AveExpr.ST7612 RASAL1 (probe ILMN_1793517): 7.10E-01
AveExpr.ST7612 RASD2 (probe ILMN_2170209): 7.75E-01
AveExpr.ST7612 REEP2 (probe ILMN_1666057): 6.85E-01
AveExpr.ST7612 RFC1 (probe ILMN_2217935): 7.23E-01
AveExpr.ST7612 RHBDD2 (probe ILMN_1809437): 7.80E-01
AveExpr.ST7612 RHBDD2 (probe ILMN_2406410): 8.04E-01
AveExpr.ST7612 RHOBTB3 (probe ILMN_1744949): 8.25E-01
AveExpr.ST7612 RHOC (probe ILMN_1673305): 9.02E-01
AveExpr.ST7612 RNASE4 (probe ILMN_1776602): 7.33E-01
AveExpr.ST7612 RND2 (probe ILMN_1736533): 7.06E-01
AveExpr.ST7612 RNF24 (probe ILMN_1717809): 7.24E-01
AveExpr.ST7612 RTN2 (probe ILMN_1749115): 8.60E-01
AveExpr.ST7612 RTN3 (probe ILMN_2363065): 7.08E-01
AveExpr.ST7612 SBK1 (probe ILMN_1728298): 8.80E-01
AveExpr.ST7612 SCARNA11 (probe ILMN_3236010): 6.95E-01
AveExpr.ST7612 SCARNA13 (probe ILMN_3235325): 7.18E-01
AveExpr.ST7612 SCARNA14 (probe ILMN_3247636): 7.31E-01
AveExpr.ST7612 SDCBP (probe ILMN_2363586): 8.86E-01
AveExpr.ST7612 SDCBP (probe ILMN_2363591): 8.22E-01
AveExpr.ST7612 SDHAP2 (probe ILMN_3248781): 7.07E-01
AveExpr.ST7612 SEMA4D (probe ILMN_1687533): 7.86E-01
AveExpr.ST7612 SEMA4F (probe ILMN_1805007): 7.51E-01
AveExpr.ST7612 SERPINB9 (probe ILMN_1742052): 7.55E-01
AveExpr.ST7612 SERPINI1 (probe ILMN_1814333): 7.79E-01
AveExpr.ST7612 SGK (probe ILMN_1702487): 8.82E-01
AveExpr.ST7612 SH3GLB2 (probe ILMN_2158336): 6.85E-01
AveExpr.ST7612 SLC23A2 (probe ILMN_1746578): 7.82E-01
AveExpr.ST7612 SLC25A4 (probe ILMN_1681670): 8.53E-01
AveExpr.ST7612 SLC25A4 (probe ILMN_2211780): 7.98E-01
AveExpr.ST7612 SLC25A23 (probe ILMN_1679949): 7.04E-01
AveExpr.ST7612 SLC44A2 (probe ILMN_1771987): 7.92E-01
AveExpr.ST7612 SLC45A3 (probe ILMN_1726114): 7.11E-01
AveExpr.ST7612 SLFN11 (probe ILMN_1752520): 7.62E-01
AveExpr.ST7612 SNAP23 (probe ILMN_1687519): 8.74E-01
AveExpr.ST7612 SNORD31 (probe ILMN_2072391): 7.85E-01
AveExpr.ST7612 SORT1 (probe ILMN_1707077): 8.42E-01
AveExpr.ST7612 SPAG9 (probe ILMN_2263718): 7.33E-01
AveExpr.ST7612 SPINT2 (probe ILMN_1800739): 8.11E-01
AveExpr.ST7612 SREBF1 (probe ILMN_1663035): 7.22E-01
AveExpr.ST7612 SRGN (probe ILMN_1760347): 7.62E-01
AveExpr.ST7612 SRGN (probe ILMN_2169152): 7.60E-01
AveExpr.ST7612 STARD10 (probe ILMN_1717052): 8.01E-01
AveExpr.ST7612 STK17B (probe ILMN_1798543): 7.91E-01
AveExpr.ST7612 STMN3 (probe ILMN_3244117): 9.01E-01
AveExpr.ST7612 STX3 (probe ILMN_1659544): 8.71E-01
AveExpr.ST7612 SUSD3 (probe ILMN_1785570): 8.58E-01
AveExpr.ST7612 TACC1 (probe ILMN_1770084): 7.64E-01
